Test results: patent US20040009485A1, “Cellular arrays for the identification of altered gene expression” (priority 2002, published 2004)

Test system: LuxArray 1.04 E. coli strains (luxCDABE gene fusions)
Assay: LuxArray 1.04 limonene stress of the reporter array in liquid culture
Format: cell-based
Settings: 80% saturated limonene in LB
Procedure: Microplates from −80° C. containing the LuxArray 1.04 E. coli strains were thawed and used to inoculate 100 μl LB medium supplemented with 100 μg/ml ampicillin in Costar#3595 flat bottomed 96-well microplates. Following overnight growth at 37° C., the plates were visually examined and any wells with little or no turbidity were recorded. Then these cultures were diluted by transfer of 15 μl to 135 μl LB medium in Costar #3595, flat bottom 96-well microplates and were moderately swirl shaken on an IKA Schuttler MTS 4 shaker at setting 400 for two hrs at 37° C. in a humidified box. Twenty μl of each these actively growing cultures were transferred to the corresponding well in sets of three microplates, one containing 80 μl of LB medium, another containing 80 μl of LB medium saturated with limonene at room temperature, and the third containing 40 μl of LB medium saturated with limonene and 40 μl of LB medium. An initial (zero time) reading was taken using an MLX microplate luminometer (Dynex) pre-warmed to 37° C. Then the plates were placed at 37° C. without shaking. Additional bioluminescent measurements were taken at 45, 90, and 135 minutes. To limit the number of microplates handled each day, LuxArray 1.04 microplates 1 to 5, microplates 6 to 10, microplates 11 to 15, and microplates […] were used on each of four different days.
The data were normalized to correct for growth-inhibition caused by limonene on the basis of each individual day that data was collected. The bioluminescence (RLU) of each individual culture for each day of experimentation under each of the three conditions, were added to determine the daily array total RLU. These were used to find a daily normalization factor (DNF) as follows:
DNF=Daily total array signal(time zero, LB control)/Daily total array signal(time x, condition y)
Each measurement from the corresponding day, time point, and condition was multiplied by DNF to yield a normalized signal. The data from wells that were scored to have little or no growth were not used in further analysis. The normalized data were analyzed with GeneSpring (Silicon Genetics) software, which averaged the signal from each of the duplicate cultures for each reporter gene fusion.
Thus, patterns of gene expression from the 80% saturated limonene in LB medium were further examined. […] These lists were examined and gene fusions with very low normalized RLU values (<0.012 RLU) at all conditions were eliminated. […] The designation of “>2X” is given for upregulation while “*” is listed if the expression was less than 2 fold increased. At 45 minutes, the expression of fourteen gene fusions was increased; none of these was increased 3 fold or higher. At 90 minutes, 37 gene fusions were induced; these included all but one of the gene fusions observed at 45 minutes. […] These were fusions of the luxCDABE reporter to the promoter regions of uhpT (3.8×), nirB (3.7×) and narK (3.6×). At 135 minutes, 39 gene fusions were induced, which included 13 fusions not observed at 45 or 90 minutes.

## C=C(C)[C@H]1CC=C(C)CC1 [limonene]
b2451 fusion, 135 minutes
  upregulation of gene fusion: >2X (The designation of “>2X” is given for upregulation)
b2550 fusion, 45 minutes
  upregulation of gene fusion: * (“*” is listed if the expression was less than 2 fold increased)
b2550 fusion, 90 minutes
  upregulation of gene fusion: >2X (The designation of “>2X” is given for upregulation)
b2550 fusion, 135 minutes
  upregulation of gene fusion: * (“*” is listed if the expression was less than 2 fold increased)
b2699 (recA) fusion, 45 minutes
  upregulation of gene fusion: * (“*” is listed if the expression was less than 2 fold increased)
b2699 (recA) fusion, 90 minutes
  upregulation of gene fusion: >2X (The designation of “>2X” is given for upregulation)
b2699 (recA) fusion, 135 minutes
  upregulation of gene fusion: >2X (The designation of “>2X” is given for upregulation)
b2999 fusion, 45 minutes
  upregulation of gene fusion: >2X (The designation of “>2X” is given for upregulation)
b2999 fusion, 90 minutes
  upregulation of gene fusion: * (“*” is listed if the expression was less than 2 fold increased)
b2999 fusion, 135 minutes
  upregulation of gene fusion: * (“*” is listed if the expression was less than 2 fold increased)
b3012 fusion, 45 minutes
  upregulation of gene fusion: >2X (The designation of “>2X” is given for upregulation)
b3012 fusion, 90 minutes
  upregulation of gene fusion: >2X (The designation of “>2X” is given for upregulation)
b3012 fusion, 135 minutes
  upregulation of gene fusion: >2X (The designation of “>2X” is given for upregulation)
b3245 fusion, 45 minutes
  upregulation of gene fusion: * (“*” is listed if the expression was less than 2 fold increased)
b3245 fusion, 90 minutes
  upregulation of gene fusion: >2X (The designation of “>2X” is given for upregulation)
b3245 fusion, 135 minutes
  upregulation of gene fusion: >2X (The designation of “>2X” is given for upregulation)
b3267 (yhdV) fusion, 45 minutes
  upregulation of gene fusion: * (“*” is listed if the expression was less than 2 fold increased)
b3267 (yhdV) fusion, 90 minutes
  upregulation of gene fusion: >2X (The designation of “>2X” is given for upregulation)
b3267 (yhdV) fusion, 135 minutes
  upregulation of gene fusion: >2X (The designation of “>2X” is given for upregulation)
b3336 (bfr) fusion, 45 minutes
  upregulation of gene fusion: * (“*” is listed if the expression was less than 2 fold increased)
b3336 (bfr) fusion, 90 minutes
  upregulation of gene fusion: >2X (The designation of “>2X” is given for upregulation)
b3336 (bfr) fusion, 135 minutes
  upregulation of gene fusion: * (“*” is listed if the expression was less than 2 fold increased)
b3365 (nirB) fusion, 45 minutes
  upregulation of gene fusion: * (“*” is listed if the expression was less than 2 fold increased)
b3365 (nirB) fusion, 90 minutes
  upregulation of gene fusion: >2X (The designation of “>2X” is given for upregulation)
b3365 (nirB) fusion, 135 minutes
  upregulation of gene fusion: >2X (The designation of “>2X” is given for upregulation)
b3419 (yhgJ) fusion, 45 minutes
  upregulation of gene fusion: * (“*” is listed if the expression was less than 2 fold increased)
b3419 (yhgJ) fusion, 90 minutes
  upregulation of gene fusion: >2X (The designation of “>2X” is given for upregulation)
b3419 (yhgJ) fusion, 135 minutes
  upregulation of gene fusion: >2X (The designation of “>2X” is given for upregulation)
b3666 (uhpT) fusion, 45 minutes
  upregulation of gene fusion: * (“*” is listed if the expression was less than 2 fold increased)
b3666 (uhpT) fusion, 90 minutes
  upregulation of gene fusion: >2X (The designation of “>2X” is given for upregulation)
b3666 (uhpT) fusion, 135 minutes
  upregulation of gene fusion: >2X (The designation of “>2X” is given for upregulation)
b3904 (rhaB) fusion, 45 minutes
  upregulation of gene fusion: >2X (The designation of “>2X” is given for upregulation)
b3904 (rhaB) fusion, 90 minutes
  upregulation of gene fusion: >2X (The designation of “>2X” is given for upregulation)
b3904 (rhaB) fusion, 135 minutes
  upregulation of gene fusion: >2X (The designation of “>2X” is given for upregulation)
b3942 (katG) fusion, 45 minutes
  upregulation of gene fusion: * (“*” is listed if the expression was less than 2 fold increased)
b3942 (katG) fusion, 90 minutes
  upregulation of gene fusion: >2X (The designation of “>2X” is given for upregulation)
b3942 (katG) fusion, 135 minutes
  upregulation of gene fusion: >2X (The designation of “>2X” is given for upregulation)
b4043 (lexA) fusion, 45 minutes
  upregulation of gene fusion: * (“*” is listed if the expression was less than 2 fold increased)
b4043 (lexA) fusion, 90 minutes
  upregulation of gene fusion: >2X (The designation of “>2X” is given for upregulation)
b4043 (lexA) fusion, 135 minutes
  upregulation of gene fusion: * (“*” is listed if the expression was less than 2 fold increased)
b4106 (phnC) fusion, 45 minutes
  upregulation of gene fusion: >2X (The designation of “>2X” is given for upregulation)
b4106 (phnC) fusion, 90 minutes
  upregulation of gene fusion: >2X (The designation of “>2X” is given for upregulation)
b4106 (phnC) fusion, 135 minutes
  upregulation of gene fusion: >2X (The designation of “>2X” is given for upregulation)
b4264 (yjgS) fusion, 45 minutes
  upregulation of gene fusion: * (“*” is listed if the expression was less than 2 fold increased)
b4264 (yjgS) fusion, 90 minutes
  upregulation of gene fusion: >2X (The designation of “>2X” is given for upregulation)
b4264 (yjgS) fusion, 135 minutes
  upregulation of gene fusion: * (“*” is listed if the expression was less than 2 fold increased)
b4392 (slt) fusion, 45 minutes
  upregulation of gene fusion: >2X (The designation of “>2X” is given for upregulation)
b4392 (slt) fusion, 90 minutes
  upregulation of gene fusion: >2X (The designation of “>2X” is given for upregulation)
b4392 (slt) fusion, 135 minutes
  upregulation of gene fusion: * (“*” is listed if the expression was less than 2 fold increased)
katG promoter fusion, 135 minutes
  upregulation of gene fusion (fold): 4.1 ×
narK promoter fusion, 90 minutes
  upregulation of gene fusion (fold): 3.6 ×
nirB promoter fusion, 90 minutes
  upregulation of gene fusion (fold): 3.7 ×
nirB promoter fusion, 135 minutes
  upregulation of gene fusion (fold): 4.1 ×
uhpT promoter fusion, 90 minutes
  upregulation of gene fusion (fold): 3.8 ×
uhpT promoter fusion, 135 minutes
  upregulation of gene fusion (fold): 7.7 ×
